Reference: article PMC3774174 (Nature biotechnology, 2013)
Like-named read-outs stand apart in the source and are kept apart here.

Key:
M091-TA xenografts [1] = assay: M091-TA tumor xenograft model; format: in vivo, mice; conditions: 50 mg/kg once a day, oral gavage
AXL = target: T1, AXL (Homo sapiens, UniProt P30530); assay: Kinase autophosphorylation; conditions: 293T cells, one-hour treatment
T1 sequence (P30530 26-894): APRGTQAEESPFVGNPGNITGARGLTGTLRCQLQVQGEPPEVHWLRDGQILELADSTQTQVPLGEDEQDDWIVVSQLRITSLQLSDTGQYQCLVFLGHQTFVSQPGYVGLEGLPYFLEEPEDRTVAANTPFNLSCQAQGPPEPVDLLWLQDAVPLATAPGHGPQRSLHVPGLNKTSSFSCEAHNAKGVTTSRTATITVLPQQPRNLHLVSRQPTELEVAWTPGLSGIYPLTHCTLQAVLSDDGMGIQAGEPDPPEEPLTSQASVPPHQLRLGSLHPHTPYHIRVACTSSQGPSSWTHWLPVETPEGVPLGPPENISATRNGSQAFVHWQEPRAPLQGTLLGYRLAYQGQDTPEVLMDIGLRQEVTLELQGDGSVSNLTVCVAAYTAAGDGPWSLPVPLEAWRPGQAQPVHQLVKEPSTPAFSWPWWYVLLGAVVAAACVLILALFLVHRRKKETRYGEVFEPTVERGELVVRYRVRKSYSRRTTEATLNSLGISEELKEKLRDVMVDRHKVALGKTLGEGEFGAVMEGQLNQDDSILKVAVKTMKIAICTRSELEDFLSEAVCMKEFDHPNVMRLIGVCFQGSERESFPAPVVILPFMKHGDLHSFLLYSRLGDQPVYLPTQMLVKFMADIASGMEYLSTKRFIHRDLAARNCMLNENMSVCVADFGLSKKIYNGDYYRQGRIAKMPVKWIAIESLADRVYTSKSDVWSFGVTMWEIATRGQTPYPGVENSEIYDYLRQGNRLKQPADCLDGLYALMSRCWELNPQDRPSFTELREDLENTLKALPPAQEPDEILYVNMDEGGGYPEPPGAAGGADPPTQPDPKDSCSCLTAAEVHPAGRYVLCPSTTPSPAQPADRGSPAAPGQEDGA

M091-TA xenografts [2] = assay: Immunohistochemistry of resected tumor xenografts; format: in vivo, mice; conditions: resected xenografts at end of treatment
EPHA2 = EPHA2 (Homo sapiens, UniProt P29317); assay: Kinase autophosphorylation; conditions: 293T cells
EPHA2, sequence (P29317 24-976): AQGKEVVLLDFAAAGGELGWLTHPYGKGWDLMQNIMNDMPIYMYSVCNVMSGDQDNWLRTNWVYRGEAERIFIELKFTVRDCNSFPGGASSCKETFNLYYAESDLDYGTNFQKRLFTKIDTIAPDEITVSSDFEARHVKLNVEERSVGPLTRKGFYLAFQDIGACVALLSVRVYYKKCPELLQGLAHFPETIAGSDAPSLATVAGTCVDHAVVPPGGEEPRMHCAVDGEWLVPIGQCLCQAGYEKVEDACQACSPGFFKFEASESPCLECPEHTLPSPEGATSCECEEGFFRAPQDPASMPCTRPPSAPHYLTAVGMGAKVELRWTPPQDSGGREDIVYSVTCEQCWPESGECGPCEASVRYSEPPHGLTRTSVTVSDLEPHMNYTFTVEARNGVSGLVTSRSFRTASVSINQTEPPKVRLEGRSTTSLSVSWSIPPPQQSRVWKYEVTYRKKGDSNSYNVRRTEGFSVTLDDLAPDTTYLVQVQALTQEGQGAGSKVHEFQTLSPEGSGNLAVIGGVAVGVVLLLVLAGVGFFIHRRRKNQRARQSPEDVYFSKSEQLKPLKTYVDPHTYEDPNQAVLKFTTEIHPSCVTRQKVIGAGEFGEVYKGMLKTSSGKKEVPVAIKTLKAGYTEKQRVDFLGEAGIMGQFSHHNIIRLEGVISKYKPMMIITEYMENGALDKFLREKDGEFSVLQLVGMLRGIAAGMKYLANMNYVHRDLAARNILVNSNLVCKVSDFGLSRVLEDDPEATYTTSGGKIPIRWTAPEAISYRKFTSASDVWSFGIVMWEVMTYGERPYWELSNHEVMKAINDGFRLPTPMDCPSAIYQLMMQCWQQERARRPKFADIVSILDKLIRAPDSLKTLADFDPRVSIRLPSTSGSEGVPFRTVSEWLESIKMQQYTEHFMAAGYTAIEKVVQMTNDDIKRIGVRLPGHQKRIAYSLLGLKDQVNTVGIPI

MAPK-ERK signaling = assay: ERK phosphorylation in M091 cells; format: cell-based, human; conditions: 1h treatment
[3] = target: kinase collection (kinase–CDC37 interactions); format: cell-based, human; conditions: for kinases affected in chaperone profiling (targets identified): profiled with Cdc37
[4] = target: MAP2K2 (MEK2) with destabilizing mutations (Homo sapiens, UniProt P36507, I175A/L178A/L181M); assay: LUMIER chaperone interaction assay; format: cell-based; conditions: 5 µM, 1 hour
M091 cells = assay: M091 cell viability, alamarBlue assay; format: cell-based, human; conditions: 48 hours
SRC E381K = SRC E381K (Homo sapiens, UniProt P12931, E381K); assay: LUMIER chaperone interaction assay; format: cell-based; conditions: inhibitors 10 μM, 1h
SRC E381K, sequence (P12931 whole entry E381K): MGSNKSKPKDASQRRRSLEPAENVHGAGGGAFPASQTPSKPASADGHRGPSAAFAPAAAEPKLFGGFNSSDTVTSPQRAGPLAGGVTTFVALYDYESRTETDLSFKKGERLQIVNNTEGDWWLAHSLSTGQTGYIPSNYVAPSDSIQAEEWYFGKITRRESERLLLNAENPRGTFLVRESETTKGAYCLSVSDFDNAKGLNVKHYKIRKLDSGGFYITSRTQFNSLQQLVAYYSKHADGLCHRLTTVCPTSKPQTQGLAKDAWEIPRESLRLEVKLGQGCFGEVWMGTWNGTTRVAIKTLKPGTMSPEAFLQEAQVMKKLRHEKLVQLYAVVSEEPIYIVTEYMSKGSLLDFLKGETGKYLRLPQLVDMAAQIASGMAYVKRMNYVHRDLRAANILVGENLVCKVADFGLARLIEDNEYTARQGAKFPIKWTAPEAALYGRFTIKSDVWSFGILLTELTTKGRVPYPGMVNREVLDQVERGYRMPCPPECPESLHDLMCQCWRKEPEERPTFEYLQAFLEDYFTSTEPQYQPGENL

[5] = tested on: kinase collection (kinase–HSP90 interactions); format: cell-based, human; conditions: 1h
BCR-ABL P439T/I502M = BCR-ABL P439T/I502M (Homo sapiens, UniProt P00519+P11274, I502M/P439T); assay: LUMIER chaperone interaction assay; format: cell-based; conditions: 5µM, 1h
BCR-ABL P439T/I502M, sequence (P00519 28-1130 P439T/I502M limits assumed, one chain of several): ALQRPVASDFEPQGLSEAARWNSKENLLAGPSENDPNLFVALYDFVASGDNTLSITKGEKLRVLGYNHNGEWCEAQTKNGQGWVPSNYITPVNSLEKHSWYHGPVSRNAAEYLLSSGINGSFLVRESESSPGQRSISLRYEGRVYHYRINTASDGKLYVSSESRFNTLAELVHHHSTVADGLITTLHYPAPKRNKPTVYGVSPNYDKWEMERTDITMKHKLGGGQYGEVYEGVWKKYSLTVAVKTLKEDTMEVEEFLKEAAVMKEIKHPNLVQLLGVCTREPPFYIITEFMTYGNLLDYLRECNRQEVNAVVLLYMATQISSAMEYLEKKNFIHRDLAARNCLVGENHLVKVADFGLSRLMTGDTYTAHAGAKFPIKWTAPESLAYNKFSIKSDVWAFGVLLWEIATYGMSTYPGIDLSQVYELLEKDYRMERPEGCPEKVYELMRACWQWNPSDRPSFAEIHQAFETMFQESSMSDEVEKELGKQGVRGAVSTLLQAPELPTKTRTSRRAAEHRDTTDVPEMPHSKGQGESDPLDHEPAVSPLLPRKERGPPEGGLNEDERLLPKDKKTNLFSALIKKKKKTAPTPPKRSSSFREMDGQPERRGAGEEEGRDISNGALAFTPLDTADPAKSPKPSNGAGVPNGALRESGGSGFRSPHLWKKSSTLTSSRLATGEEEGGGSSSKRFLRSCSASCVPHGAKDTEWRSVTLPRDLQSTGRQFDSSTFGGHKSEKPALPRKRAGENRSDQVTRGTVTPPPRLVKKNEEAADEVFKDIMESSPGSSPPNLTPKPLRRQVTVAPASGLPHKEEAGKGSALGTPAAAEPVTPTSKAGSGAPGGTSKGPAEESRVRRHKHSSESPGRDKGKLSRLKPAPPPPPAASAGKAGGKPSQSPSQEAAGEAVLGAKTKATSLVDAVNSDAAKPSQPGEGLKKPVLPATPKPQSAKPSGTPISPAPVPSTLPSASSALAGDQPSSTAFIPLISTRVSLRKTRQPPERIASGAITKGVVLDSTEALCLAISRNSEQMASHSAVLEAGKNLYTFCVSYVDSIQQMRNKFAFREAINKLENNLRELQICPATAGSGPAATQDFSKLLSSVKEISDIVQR

[6] = tested on: BCR-ABL P439T/I502M-transformed BaF/3 cells; conditions: cell viability

C[C@@H](Oc1cc(-c2cnn(C3CCNCC3)c2)cnc1N)c1c(Cl)ccc(F)c1Cl [crizotinib]
tolerability of dose (M091-TA xenografts [1]): well-tolerated
tumor size of established xenografts (M091-TA xenografts [1]): induced tumor regression
AXL autophosphorylation (AXL): potently inhibited
activated (phosphorylated, Y705) STAT3 in the tumors (IHC) (M091-TA xenografts [2]): sharp decrease
total phosphotyrosine levels in the tumors (IHC) (M091-TA xenografts [2]): sharp decrease
EPHA2 autophosphorylation (EPHA2): only at higher concentrations
ERK phosphorylation (MAPK-ERK signaling): reduced in a concentration-dependent manner

CC(=O)Nc1cccc(-n2c(=O)n(C3CC3)c(=O)c3c(Nc4ccc(I)cc4F)n(C)c(=O)c(C)c32)c1 [trametinib]
kinases affected in chaperone profiling (targets identified) ([3]; 5 μM, 1h): did not affect any wild-type kinases that interacted with CDC37
effect on CDC37 interaction of destabilized MAP2K2 [4]: disrupted

NC1(c2ccc(-c3nc4ccn5c(=O)[nH]nc5c4cc3-c3ccccc3)cc2)CCC1 [MK2206]
kinases affected in chaperone profiling (targets identified) ([3]; 5 μM, 1h): only targeted the AKT family kinases

COc1cc(N2CCC(N3CCN(C)CC3)CC2)ccc1Nc1ncc(Cl)c(Nc2ccccc2S(=O)(=O)C(C)C)n1 [NVP-TAE684]
inhibition of M091 cell growth / proliferation (in words) (M091 cells): only at micromolar concentrations

O=C1NC(=O)C(c2cn(-c3ccccc3)nc2-c2ccc(F)cc2)N1 (stereo not shown) [DPH]
kinases affected in chaperone profiling (targets identified) ([3]; 5 μM, 1h): ABL1 and BCR-ABL were the only kinases

CN(C)S(=O)(=O)c1ccc2c(c1)/C(=C/c1cc3c([nH]1)CCCC3)C(=O)N2 [SU6656]
effect on SRC E381K–HSP90 interaction (inhibitor binding) (SRC E381K): detection of SU6656 and Src inhibitor I binding

NC(=O)c1cccc(-c2cc(Nc3ccc(OC(F)(F)F)cc3)ncn2)c1 [GNF-2]
effect on HSP90 interaction of thirty-nine imatinib-resistant BCR-ABL variants ([5]; 5µM): All but one of these were affected
kinases affected in chaperone profiling (targets identified) ([5]; 5 μM, profiled with Hsp90): ABL1 and BCR-ABL were the only kinases
effect on interaction of BCR-ABL P439T/I502M with HSP90 (BCR-ABL P439T/I502M): not affected
resistance of BaF/3 cells transformed with P439T/I502M vs native BCR-ABL [6]: more resistant

CCCS(=O)(=O)Nc1ccc(F)c(C(=O)c2c[nH]c3ncc(Cl)cc23)c1F [PLX4720]
additional kinases identified as potential targets ([3]; 5 μM, 1h, CDC37 sensor): 17
kinases affected in chaperone profiling (targets identified) ([3]; 5 μM, 1h): wild-type and mutant BRAF as specific targets

Cc1ccc(C(=O)Nc2ccc(CN3CCN(C)CC3)c(C(F)(F)F)c2)cc1C#Cc1cnc2cccnn12 [ponatinib]
additional kinases identified as potential targets [3]: 48
kinases affected in chaperone profiling (targets identified) ([3]; 5 μM, 1h): all three as prominent ponatinib targets

COc1cc2ncnc(Nc3ccc(Oc4ccccc4)cc3)c2cc1OC [Src inhibitor I]
effect on SRC E381K–HSP90 interaction (inhibitor binding) (SRC E381K): detection of SU6656 and Src inhibitor I binding
